The source made the active and inactive calls.
Tests used:
[1] = miR-122 activators in hepatoma reporter cells, dose response, cell-based, Huh7 psiCHECK-miR122, Renilla luciferase, cherry-picked (AID 651956); format: functional;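 further: huh7 hepatoma cells stably carrying a psiCHECK-2 miR-122 sensor plasmid; renilla luciferase signal reporting endogenous miR-122 activity after 48 h compound exposure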
[2] = HEK293T cytotoxicity, dose response, cytotoxicity control for miR-122 modulator project, cell-based, inhibitor set, cherry-pick, set 2 (AID 720697); format: functional
Steroidogenic factor 1 = Steroidogenic factor 1 (Homo sapiens, UniProt Q13285); assay: Counterscreen for inverse agonists of the liver receptor homolog-1 (LRH-1; NR5A2): Luminescence-based cell-based high throughput dose response assay to identify inverse agonists of the Steroidogenic Factor 1 Nuclear Receptor (SF1; NR5A1).; format: functional
Sequence of Steroidogenic factor 1 (Q13285 whole entry): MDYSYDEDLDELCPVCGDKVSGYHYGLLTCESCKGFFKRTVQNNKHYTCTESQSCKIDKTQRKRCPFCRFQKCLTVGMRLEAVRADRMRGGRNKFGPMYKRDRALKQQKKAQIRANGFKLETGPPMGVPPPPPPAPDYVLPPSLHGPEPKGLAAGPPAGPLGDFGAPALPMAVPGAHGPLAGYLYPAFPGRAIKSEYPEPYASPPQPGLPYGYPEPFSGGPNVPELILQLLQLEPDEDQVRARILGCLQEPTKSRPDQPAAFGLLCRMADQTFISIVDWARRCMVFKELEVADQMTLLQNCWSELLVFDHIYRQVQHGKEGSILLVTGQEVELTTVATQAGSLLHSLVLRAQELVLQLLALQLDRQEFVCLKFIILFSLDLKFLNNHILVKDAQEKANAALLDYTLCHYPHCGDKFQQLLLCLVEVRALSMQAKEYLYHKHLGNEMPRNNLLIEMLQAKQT

[3] = target: Nuclear receptor subfamily 5 group A member 2 (Homo sapiens, UniProt O00482); format: functional, cell-based;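 further: HEK293T cells transfected with LRH-1 and a StAR promoter luciferase reporter; potency for inhibitors that lower LRH-1 driven reporter light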
Sequence of Nuclear receptor subfamily 5 group A member 2 (O00482 whole entry): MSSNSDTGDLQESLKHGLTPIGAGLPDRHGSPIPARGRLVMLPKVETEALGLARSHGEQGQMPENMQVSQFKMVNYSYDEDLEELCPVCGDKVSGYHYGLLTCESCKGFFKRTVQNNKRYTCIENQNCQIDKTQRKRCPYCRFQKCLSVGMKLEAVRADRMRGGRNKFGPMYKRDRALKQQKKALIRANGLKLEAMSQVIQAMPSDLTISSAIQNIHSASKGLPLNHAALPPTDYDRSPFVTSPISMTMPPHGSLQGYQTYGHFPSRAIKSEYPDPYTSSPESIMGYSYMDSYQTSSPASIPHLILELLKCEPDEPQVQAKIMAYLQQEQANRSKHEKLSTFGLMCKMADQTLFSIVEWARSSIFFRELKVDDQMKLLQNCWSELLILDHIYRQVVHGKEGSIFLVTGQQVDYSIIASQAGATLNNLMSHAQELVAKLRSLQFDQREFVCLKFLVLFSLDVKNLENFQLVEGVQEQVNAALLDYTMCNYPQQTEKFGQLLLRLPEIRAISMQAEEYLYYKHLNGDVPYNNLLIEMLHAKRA

[4] = StAR promoter reporter inhibition counter-screen, dose response, counter-screen for LRH-1 inverse agonist project, cell-based, luminescence, luciferase reporter (AID 651969); format: functional
[5] = ADAM10 protease inhibitors, dose response, selectivity assay for ADAM17 exosite inhibitor project, biochemical, FRET peptide substrate, recombinant human ADAM10 (AID 743259);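 further: ADAM10 enzyme cleaving a FRET peptide substrate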
[6] = target: Disintegrin and metalloproteinase domain-containing protein 17 (Homo sapiens, UniProt P78536); assay: exosite inhibitors of ADAM17, dose response, biochemical (AID 743260)
Sequence of Disintegrin and metalloproteinase domain-containing protein 17 (P78536 whole entry, the tested form may be a part): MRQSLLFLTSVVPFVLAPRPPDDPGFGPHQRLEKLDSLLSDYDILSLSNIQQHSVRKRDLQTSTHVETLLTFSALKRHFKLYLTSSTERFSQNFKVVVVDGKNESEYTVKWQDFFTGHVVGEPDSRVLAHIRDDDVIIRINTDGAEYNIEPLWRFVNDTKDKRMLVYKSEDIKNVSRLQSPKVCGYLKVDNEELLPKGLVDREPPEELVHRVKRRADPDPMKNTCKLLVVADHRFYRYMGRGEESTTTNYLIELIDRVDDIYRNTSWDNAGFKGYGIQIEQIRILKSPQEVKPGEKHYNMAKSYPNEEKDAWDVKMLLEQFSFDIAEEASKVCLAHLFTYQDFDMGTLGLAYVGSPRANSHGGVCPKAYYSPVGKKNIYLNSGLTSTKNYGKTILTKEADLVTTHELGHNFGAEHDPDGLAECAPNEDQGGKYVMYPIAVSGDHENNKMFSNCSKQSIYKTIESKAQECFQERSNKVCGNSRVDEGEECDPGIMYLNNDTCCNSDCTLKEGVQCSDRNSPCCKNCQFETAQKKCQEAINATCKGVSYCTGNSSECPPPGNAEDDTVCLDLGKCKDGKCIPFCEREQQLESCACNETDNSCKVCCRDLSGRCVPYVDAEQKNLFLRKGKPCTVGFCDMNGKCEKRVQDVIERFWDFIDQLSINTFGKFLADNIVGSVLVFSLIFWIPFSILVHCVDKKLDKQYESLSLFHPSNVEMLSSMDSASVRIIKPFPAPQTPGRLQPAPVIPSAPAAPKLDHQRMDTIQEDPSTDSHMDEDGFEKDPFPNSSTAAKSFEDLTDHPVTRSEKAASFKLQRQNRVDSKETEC

[7] = Luminescence Cell-Based Dose Retest to Confirm Inhibitors of Cancer Stem Cells. [Related pubchem assays (depositor defined):AID2717, AID2721]; format: functional; conditions: Homo sapiens
[8] = target: Metabotropic glutamate receptor 5 (Rattus norvegicus, UniProt P31424); assay: Identification of a glycine sulfonamide based non-MPEP site positive allosteric potentiator (PAM) of mGlu5 (calcium_assay).; format: functional
Sequence of Metabotropic glutamate receptor 5 (P31424 whole entry): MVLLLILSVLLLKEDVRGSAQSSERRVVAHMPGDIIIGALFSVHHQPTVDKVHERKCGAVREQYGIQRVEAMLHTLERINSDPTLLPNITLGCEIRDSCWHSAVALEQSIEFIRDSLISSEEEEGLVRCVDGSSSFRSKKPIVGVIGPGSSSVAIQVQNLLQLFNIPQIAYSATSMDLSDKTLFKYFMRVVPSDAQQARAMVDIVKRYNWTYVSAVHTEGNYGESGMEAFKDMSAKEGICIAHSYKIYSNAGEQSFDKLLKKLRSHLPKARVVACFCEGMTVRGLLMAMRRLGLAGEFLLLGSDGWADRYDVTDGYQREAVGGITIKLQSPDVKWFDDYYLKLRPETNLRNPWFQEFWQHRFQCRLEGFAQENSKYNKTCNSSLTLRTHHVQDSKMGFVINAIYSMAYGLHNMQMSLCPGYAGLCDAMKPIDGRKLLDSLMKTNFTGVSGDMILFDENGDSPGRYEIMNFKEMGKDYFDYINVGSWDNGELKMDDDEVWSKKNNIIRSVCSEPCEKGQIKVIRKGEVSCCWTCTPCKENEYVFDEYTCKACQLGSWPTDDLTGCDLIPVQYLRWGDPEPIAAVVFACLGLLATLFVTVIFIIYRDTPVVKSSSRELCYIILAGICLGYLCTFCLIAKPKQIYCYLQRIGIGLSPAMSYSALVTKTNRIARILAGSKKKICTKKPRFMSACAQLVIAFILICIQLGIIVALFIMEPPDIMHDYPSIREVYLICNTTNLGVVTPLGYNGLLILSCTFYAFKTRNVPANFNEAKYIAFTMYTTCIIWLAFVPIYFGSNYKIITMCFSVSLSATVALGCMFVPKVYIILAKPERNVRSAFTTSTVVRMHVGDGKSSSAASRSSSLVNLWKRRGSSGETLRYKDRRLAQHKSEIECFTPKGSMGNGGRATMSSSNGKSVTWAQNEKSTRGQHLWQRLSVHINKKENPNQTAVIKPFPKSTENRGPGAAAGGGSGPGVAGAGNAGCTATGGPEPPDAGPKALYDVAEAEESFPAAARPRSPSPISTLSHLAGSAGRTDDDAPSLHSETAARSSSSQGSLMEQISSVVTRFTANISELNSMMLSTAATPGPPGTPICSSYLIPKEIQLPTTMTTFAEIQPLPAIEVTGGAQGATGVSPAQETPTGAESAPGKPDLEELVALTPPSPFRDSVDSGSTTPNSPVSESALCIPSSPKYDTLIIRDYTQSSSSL

[9] = target: FAD-linked sulfhydryl oxidase ALR (Homo sapiens, UniProt P55789); assay: inhibitors of human ALR sulfhydryl oxidase, dose response, biochemical, H2O2 detection, luminescence, cherry-pick (AID 493248)
Sequence of FAD-linked sulfhydryl oxidase ALR (P55789 whole entry): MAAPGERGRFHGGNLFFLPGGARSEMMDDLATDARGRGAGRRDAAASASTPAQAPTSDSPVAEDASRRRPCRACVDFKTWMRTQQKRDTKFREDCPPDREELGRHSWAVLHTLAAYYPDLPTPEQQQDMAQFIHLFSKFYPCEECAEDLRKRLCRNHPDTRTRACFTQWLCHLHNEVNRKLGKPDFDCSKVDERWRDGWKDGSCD

[10] = target: T1, Corticotropin-releasing factor receptor 2/Corticotropin-releasing factor-binding protein (Homo sapiens, UniProt P24387+Q13324); assay: Dose Response confirmation of uHTS hits for small molecule antagonists of the CRF-binding protein and CRF-R2 receptor complex.; format: functional; conditions: read-out: IC50_Mean
T1 sequence (Q13324 whole entry): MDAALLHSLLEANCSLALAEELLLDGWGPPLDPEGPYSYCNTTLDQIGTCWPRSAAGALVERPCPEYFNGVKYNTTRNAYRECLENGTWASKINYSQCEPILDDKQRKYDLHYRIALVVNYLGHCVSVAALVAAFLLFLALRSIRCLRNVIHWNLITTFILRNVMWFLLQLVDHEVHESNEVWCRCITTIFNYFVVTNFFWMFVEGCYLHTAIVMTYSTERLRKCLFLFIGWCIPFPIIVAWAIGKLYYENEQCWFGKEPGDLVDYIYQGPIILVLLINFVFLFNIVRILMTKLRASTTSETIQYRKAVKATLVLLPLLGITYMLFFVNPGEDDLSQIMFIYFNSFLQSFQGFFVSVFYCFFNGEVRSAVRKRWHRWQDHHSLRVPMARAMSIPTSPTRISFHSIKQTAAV
T1 sequence (P24387 whole entry): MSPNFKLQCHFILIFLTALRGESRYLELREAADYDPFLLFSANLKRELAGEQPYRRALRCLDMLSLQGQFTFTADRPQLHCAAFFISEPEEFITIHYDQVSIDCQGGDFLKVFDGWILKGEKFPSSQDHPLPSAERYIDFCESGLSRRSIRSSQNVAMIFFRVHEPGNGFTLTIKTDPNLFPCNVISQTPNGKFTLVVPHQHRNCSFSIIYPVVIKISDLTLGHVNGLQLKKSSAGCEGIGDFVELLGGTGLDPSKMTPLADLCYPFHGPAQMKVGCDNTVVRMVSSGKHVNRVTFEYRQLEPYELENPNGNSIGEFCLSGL

[11] = CRF-BP/CRF-R2 complex antagonists, dose response, cell-based, uHTS hits, 384-well (AID 651639); format: functional, Homo sapiens; conditions: read-out: IC50_Mean
[12] = target: T1, Corticotropin-releasing factor receptor 2/Corticotropin-releasing factor-binding protein; assay: activators of CRF receptor 2 with binding protein – uHTS hits, confirmation (AID 602473); format: functional; conditions: read-out: EC50_Mean
[13] = CEM21 lymphoblast cell cytotoxicity, dose response, cytotoxicity control for viral fusion inhibitor project, CellTiter-Glo luminescence, cherry-picked (AID 652042); format: functional, cell-based;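 further: potency for signal decrease meaning cytotoxicity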
[14] = inhibitors of clade B AD8 Env fusion, dose response, cell-based, cherry-pick (AID 652062); format: functional;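 further: luciferase signal from cell-cell fusion driven by HIV-1 clade B AD8 Env; potency is for inhibitors of fusion seen as a drop in luminescence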
[15] = ZM109 Env clade C HIV-1 fusion inhibitors, dose response, HeLa effector, CEM target cells, luciferase, cherry-pick (AID 652058); format: functional, cell-based
[16] = inhibitors of HIV Env-driven cell fusion, dose response, cherry-pick (AID 652057); format: functional, cell-based
[17] = off-target signal loss in HeLa-CEM21 co-culture – HeLa F-luc CTL cells, cherry-picked, counter-screen for HIV-1 Env fusion inhibitor project, dose response (AID 652040); format: functional, cell-based;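 further: potency for signal decrease marking cytotoxic or nonspecific inhibition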
cells = format: functional, cell-based; conditions: HEK-CNG
Galanin receptor type 3 = target: T2, Galanin receptor type 3 (Homo sapiens, UniProt O60755); assay: Fluorescence-based cell-based primary high throughput dose response assay to identify antagonists of the Galanin Receptor 3 (GalR3).; format: functional
T2 sequence (O60755 whole entry): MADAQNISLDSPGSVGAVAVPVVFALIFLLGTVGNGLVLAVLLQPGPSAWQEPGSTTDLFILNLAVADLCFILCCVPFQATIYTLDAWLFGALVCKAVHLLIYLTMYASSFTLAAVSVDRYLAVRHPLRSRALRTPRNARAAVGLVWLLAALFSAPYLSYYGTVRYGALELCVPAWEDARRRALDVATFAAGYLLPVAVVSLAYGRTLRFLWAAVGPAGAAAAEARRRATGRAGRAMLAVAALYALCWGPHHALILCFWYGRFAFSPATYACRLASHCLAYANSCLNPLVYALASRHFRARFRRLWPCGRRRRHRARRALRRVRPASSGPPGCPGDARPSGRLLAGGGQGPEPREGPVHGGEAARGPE

Leucine aminopeptidase = target: T3, Leucine aminopeptidase (Plasmodium falciparum 3D7, UniProt Q8IL11); assay: P. falciparum M17LAP inhibitors, primary screen, biochemical, fluorogenic H-Leu-NHMec substrate, 1536-well (AID 1619); format: functional
T3 sequence (Q8IL11 whole entry): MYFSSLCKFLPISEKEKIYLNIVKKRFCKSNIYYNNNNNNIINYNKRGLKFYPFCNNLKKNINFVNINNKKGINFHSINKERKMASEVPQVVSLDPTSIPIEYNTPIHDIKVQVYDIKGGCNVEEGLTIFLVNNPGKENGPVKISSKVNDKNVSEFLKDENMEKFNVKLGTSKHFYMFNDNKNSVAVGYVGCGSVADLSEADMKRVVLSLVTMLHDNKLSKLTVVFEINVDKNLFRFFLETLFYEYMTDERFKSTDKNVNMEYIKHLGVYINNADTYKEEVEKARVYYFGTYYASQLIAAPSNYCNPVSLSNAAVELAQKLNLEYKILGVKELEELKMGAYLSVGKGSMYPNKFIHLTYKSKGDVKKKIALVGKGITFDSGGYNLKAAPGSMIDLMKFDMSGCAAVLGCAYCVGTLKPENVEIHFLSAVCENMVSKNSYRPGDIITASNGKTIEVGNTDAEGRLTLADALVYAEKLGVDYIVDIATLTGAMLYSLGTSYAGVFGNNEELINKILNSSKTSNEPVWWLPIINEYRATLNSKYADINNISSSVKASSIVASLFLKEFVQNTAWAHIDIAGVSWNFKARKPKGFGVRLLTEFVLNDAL

Q: What does the source list for CN(C)c1ncnc2c1ncn2C1OC(CO)C(O)C1O (centres undefined)?
A: AC50 [1]: 25.4 µM (active); AC50 [2]: 8.52 µM (active)

Q: What does the source list for Cc1ccc(-c2nn3c(C)nnc3s2)cc1NC(=O)c1ccco1?
A: IC50 (Steroidogenic factor 1): 8.56 µM (active); IC50 [3]: 18.3 µM (inactive); IC50 [4]: 35.9 µM (inactive)

Q: For C/C(=N/Nc1ccc([N+](=O)[O-])cc1)c1ccc(C)cc1C, which IC50 [5] is on record?
A: Its IC50 is 20.5 µM (inactive).

Q: What about the IC50 [6] of the same compound?
A: Its IC50 is > 69.5 µM (inactive).

Q: And the AC50 [7]?
A: Its AC50 is 5.92 µM (active).

Q: Which EC50 [8] does the source give for CC(C)NC(=O)CN(c1ccccc1Cl)S(C)(=O)=O here?
A: The EC50 was > 30 µM (inactive).

Q: For Cc1nc2c(C)cccc2cc1C(=O)N/N=C/c1ccc(O)cc1, which AC50 [9] is on record?
A: The AC50 was 0.025 µM (active).

Q: What about the IC50 [10] of the same compound?
A: Its IC50 is 33.1 µM (active).

Q: What about the IC50 [11] of the same compound?
A: Its IC50 is > 20 µM (inactive).

Q: And the EC50 [12]?
A: The EC50 was > 53 µM (inactive).

Q: Which results are given for Cc1ccccc1S(=O)(=O)N(C)C[C@@H]1OCc2ccccc2-c2c(n(C)c3ccccc23)C(=O)N([C@H](C)CO)C[C@@H]1C?
A: AC50 [13]: 31.6 µM (active); AC50 [14]: 3.16 µM (active); AC50 [15]: 1.75 µM (active); AC50 [16]: 1.37 µM (active); AC50 [17]: 1.66 µM (active)

Q: With COc1cccc(NC(=O)c2cc(S(=O)(=O)N3CCc4ccccc43)cn2C)c1 as the compound, how does the IC50 [10] read?
A: Its IC50 is < 0.368 µM (active).

Q: What about the IC50 [11] of the same compound?
A: The IC50 was > 20 µM (inactive).

Q: And the EC50 [12]?
A: The EC50 was > 53 µM (inactive).

Q: Which IC50 (Steroidogenic factor 1) does the source give for CCc1cc(=O)oc2c(C)c(OCC(=O)NCCCN3CCCC3=O)ccc12 here?
A: Its IC50 is 35.9 µM (inactive).

Q: What about the IC50 [3] of the same compound?
A: Its IC50 is 35.9 µM (inactive).

Q: And the IC50 [4]?
A: The IC50 was 35.9 µM (inactive).

Q: For O=C(Nc1ccc(Oc2ccccc2)cc1)c1csc(COCCO)n1, which EC50 (cells) is on record?
A: Its EC50 is > 29.9 µM (inactive).

Q: And the IC50 (Galanin receptor type 3)?
A: The IC50 was 1.39 µM (active).

Q: With CCc1c(C)nc(SCC(=O)Nc2ccc3c(c2)OCCO3)[nH]c1=O as the compound, how does the IC50 (Steroidogenic factor 1) read?
A: Its IC50 is 0.599 µM (active).

Q: And the IC50 [3]?
A: Its IC50 is 1.54 µM (active).

Q: And the IC50 (Leucine aminopeptidase)?
A: Its IC50 is 10.2 µM (active).

From ChEMBL document CHEMBL1201862, “PubChem BioAssay data set” (2004)
